Measurements reported in patent publication US20260125346A1, “Isoquinolinone Derivatives and 4H-Quinolizinone Derivatives and Pharmaceutical Compositions Thereof for the Treatment of Disease” (BeOne Medicines I GmbH, priority 2023, published 2026).

Assays:
[1] = target: PI3Kα (p110/p85) kinase (wild type, "WT") (Homo sapiens, UniProt P42336); assay: PI3Kα (p110/p85) kinase ADP-Glo Assay; type: biochemical; settings: 25 uM ATP
Procedure, shortened: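 IC50 values come from a four-parameter logistic fit of ADP-Glo chemiluminescence, reflecting ADP formed. Enzyme, lipid substrate and […] compound were preincubated 30 min at room temperature, then 25 µM ATP was added for a 120 min reaction in 50 mM HEPES pH7.5, 3 mM MgCl2.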

[2] = test system: PI3Kα H1047R mutated cell line T-47D; assay: Phospho-AKT (Ser473) Inhibition Assay (HTRF), T-47D; type: cell-based; settings: for IC50: Homo sapiens, T47D, T-47D, 1 hour treatment, read-out: p-AKT Inhibition assay (S473) IC50 T-47D; for Selectivity: SK-BR-3/T-47D (p-AKT): p-AKT (S473) IC50 ratio
Procedure, shortened: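 Cells seeded overnight in insulin-supplemented MEM, then treated 1 h with 11-point 1:3 compound dilutions (10 μM to 0.1 nM final, 0.1% DMSO). Lysates assayed for phospho-AKT Ser473 by HTRF; IC50 from 4-parameter logistic fit, normalised to DMSO (max) and 10 μM GDC0077 (min).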

[3] = test system: PI3Kα H1047R mutated cell line T-47D cells; assay: Cell Proliferation Assay (CellTiter-Glo), T-47D; type: cell-based; settings: for IC50: Homo sapiens, T47D, 72 h, T-47D, 3 days treatment; for Selectivity: SK-BR-3/T-47D (cell proliferation): cell proliferation IC50 ratio
Procedure, shortened: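 T-47D cells seeded overnight at 3×10^3/well, then exposed 3 days to 9-point 1:3 dilutions, final […] to 1 nM in 0.1% DMSO. CellTiter-Glo luminescence; relative IC50 from percent inhibition versus medium-only and 0.1% DMSO controls, 4-parameter logistic fit.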

PI3Kα (p110/p85) kinase (wild type, "WT"), sequence (P42336 whole entry): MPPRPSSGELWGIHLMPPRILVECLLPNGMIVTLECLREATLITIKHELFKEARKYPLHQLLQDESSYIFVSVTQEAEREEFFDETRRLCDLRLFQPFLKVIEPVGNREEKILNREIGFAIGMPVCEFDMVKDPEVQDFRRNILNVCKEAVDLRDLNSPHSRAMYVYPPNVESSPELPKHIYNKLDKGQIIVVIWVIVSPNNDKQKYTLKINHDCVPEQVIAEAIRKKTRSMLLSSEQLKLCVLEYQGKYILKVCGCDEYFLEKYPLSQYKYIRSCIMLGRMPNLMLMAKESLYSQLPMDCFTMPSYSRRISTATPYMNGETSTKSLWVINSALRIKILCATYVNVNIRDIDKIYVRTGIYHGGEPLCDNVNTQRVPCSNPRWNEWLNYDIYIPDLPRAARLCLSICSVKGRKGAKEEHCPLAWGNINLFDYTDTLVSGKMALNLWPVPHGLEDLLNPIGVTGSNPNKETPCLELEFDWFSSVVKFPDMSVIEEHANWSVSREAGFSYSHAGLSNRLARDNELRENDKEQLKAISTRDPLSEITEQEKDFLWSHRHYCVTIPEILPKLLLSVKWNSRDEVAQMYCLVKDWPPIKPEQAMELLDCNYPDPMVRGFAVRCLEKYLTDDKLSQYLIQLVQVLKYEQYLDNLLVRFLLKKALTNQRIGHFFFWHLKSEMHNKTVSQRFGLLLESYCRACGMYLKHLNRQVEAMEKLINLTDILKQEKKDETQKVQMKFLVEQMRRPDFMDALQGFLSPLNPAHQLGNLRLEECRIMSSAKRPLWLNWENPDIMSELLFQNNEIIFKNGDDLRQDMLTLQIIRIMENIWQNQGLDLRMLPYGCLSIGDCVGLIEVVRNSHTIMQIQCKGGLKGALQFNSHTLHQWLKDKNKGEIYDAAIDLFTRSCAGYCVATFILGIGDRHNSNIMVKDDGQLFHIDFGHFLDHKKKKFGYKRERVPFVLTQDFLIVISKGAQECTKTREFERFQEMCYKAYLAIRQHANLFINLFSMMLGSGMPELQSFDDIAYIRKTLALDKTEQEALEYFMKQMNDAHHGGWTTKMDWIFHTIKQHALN
PI3Kα (p110/p85) kinase (wild type, "WT"), sequence (P27986 whole entry partner): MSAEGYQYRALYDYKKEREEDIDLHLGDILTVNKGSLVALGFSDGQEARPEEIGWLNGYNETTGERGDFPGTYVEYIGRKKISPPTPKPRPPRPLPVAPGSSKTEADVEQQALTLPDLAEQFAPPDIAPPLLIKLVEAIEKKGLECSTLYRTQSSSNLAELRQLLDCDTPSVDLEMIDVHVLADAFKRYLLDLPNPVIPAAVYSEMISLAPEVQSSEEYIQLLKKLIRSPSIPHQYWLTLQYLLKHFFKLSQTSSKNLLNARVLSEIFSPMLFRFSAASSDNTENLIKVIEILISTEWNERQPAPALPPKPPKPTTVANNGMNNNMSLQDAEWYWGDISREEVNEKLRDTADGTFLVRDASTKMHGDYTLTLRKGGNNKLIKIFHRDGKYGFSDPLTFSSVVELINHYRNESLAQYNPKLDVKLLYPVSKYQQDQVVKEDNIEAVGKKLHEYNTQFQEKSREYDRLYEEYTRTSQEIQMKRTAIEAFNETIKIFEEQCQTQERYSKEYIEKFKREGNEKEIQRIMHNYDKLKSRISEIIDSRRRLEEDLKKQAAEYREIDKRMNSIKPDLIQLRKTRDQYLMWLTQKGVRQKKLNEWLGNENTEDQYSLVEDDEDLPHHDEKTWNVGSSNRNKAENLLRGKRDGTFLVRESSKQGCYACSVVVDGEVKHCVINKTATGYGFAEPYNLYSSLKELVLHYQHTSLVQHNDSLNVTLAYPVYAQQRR

| SMILES | IC50 [1] [nM] | IC50 [2] [nM] | Selectivity: SK-BR-3/T-47D (p-AKT) [2] | IC50 [3] [nM] | Selectivity: SK-BR-3/T-47D (cell proliferation) [3] |
| --- | --- | --- | --- | --- | --- |
| Cc1cc(C(C)Nc2ccccc2C(=O)O)c2cc(-c3ccccn3)n(C)c(=O)c2c1 (stereo not shown) [Example 36, 2-((1-(2,7-dimethyl-1-oxo-3-(pyridin-2-yl)-1,2-dihydroisoquinolin-5-yl)ethyl)amino)benzoic acid] | 50800 | 467 | >21 | 1420 | >7.04 |
| COC1(c2ccc(-c3cc4c(C(C)Nc5ccccc5C(=O)O)cc(C)cc4c(=O)n3C)cc2)CCOCC1 (stereo not shown) [Example 74, 2-((1-(3-(4-(4-methoxytetrahydro-2H-pyran-4-yl)phenyl)-2,7-dimethyl-1-oxo-1,2-dihydroisoquinolin-5-yl)ethyl)amino)benzoic acid] | 13100 | 307 | 14.3 | 86.9 | >115 |
| CCn1c(-c2ccc(F)cc2)cc2c(C(C)Nc3ccc(Cl)nc3C(=O)O)cc(C)cc2c1=O (stereo not shown) [Example 81, 6-chloro-3-((1-(2-ethyl-3-(4-fluorophenyl)-7-methyl-1-oxo-1,2-dihydroisoquinolin-5-yl)ethyl)amino)picolinic acid] | 3780 | 40.9 | 45.6 | 770 | >13 |
| Cc1cc(C(C)Nc2ccccc2C(=O)O)c2cc(-c3cccc(C(C)(C)C#N)c3)n(C)c(=O)c2c1 (stereo not shown) [Example 5, 2-((1-(3-(3-(2-cyanopropan-2-yl)phenyl)-2,7-dimethyl-1-oxo-1,2-dihydroisoquinolin-5-yl)ethyl)amino)benzoic acid] | 5280 | 135 | 34.3 | 520 | >19 |
| Cc1cc(C(C)Nc2ccccc2C(=O)O)c2cc(-c3ccccc3F)n(C)c(=O)c2c1 (stereo not shown) [Example 6, 2-((1-(3-(2-fluorophenyl)-2,7-dimethyl-1-oxo-1,2-dihydroisoquinolin-5-yl)ethyl)amino)benzoic acid] | 2880 | 62.4 | 51.5 | 326 | >31 |
| CC#Cc1ccc(-c2cc3c(C(C)Nc4ccccc4C(=O)O)cc(C)cc3c(=O)n2C)cc1 (stereo not shown) [Example 52, 2-((1-(2,7-dimethyl-1-oxo-3-(4-(prop-1-yn-1-yl)phenyl)-1,2-dihydroisoquinolin-5-yl)ethyl)amino)benzoic acid] | 9450 | 75.6 | 95.1 | 706 | >14 |
| Cc1cc(C(C)Nc2ccccc2C(=O)O)c2cc(-c3ccc(F)cc3)n(C3COC3)c(=O)c2c1 (stereo not shown) [Example 95, 2-((1-(3-(4-fluorophenyl)-7-methyl-2-(oxetan-3-yl)-1-oxo-1,2-dihydroisoquinolin-5-yl)ethyl)amino)benzoic acid] | 4340 | 25.6 | 52.9 | 284 | >35 |
| Cc1cc(C(C)Nc2ccccc2C(=O)O)c2cc(-c3cccc(F)c3F)n(C)c(=O)c2c1 (stereo not shown) [Example 12, 2-((1-(3-(2,3-difluorophenyl)-2,7-dimethyl-1-oxo-1,2-dihydroisoquinolin-5-yl)ethyl)amino)benzoic acid] | 6690 | 55.3 | 39.0 | 237 | >42 |
| Cc1cc(C(C)Nc2ccccc2C(=O)O)c2cc(-c3ccccc3C)n(C)c(=O)c2c1 (stereo not shown) [Example 2, 2-((1-(2,7-dimethyl-1-oxo-3-(o-tolyl)-1,2-dihydroisoquinolin-5-yl)ethyl)amino)benzoic acid] | 22400 | 66.3 | 43.0 | 1230 | >8.2 |
| Cc1cc(C(C)Nc2ccccc2C(=O)O)c2cc(-c3ccc(F)cc3F)n(C)c(=O)c2c1 (stereo not shown) [Example 11, 2-((1-(3-(2,4-difluorophenyl)-2,7-dimethyl-1-oxo-1,2-dihydroisoquinolin-5-yl)ethyl)amino)benzoic acid] | 21100 | 80.2 | >125 | 490 | >20.42 |
| Cc1cc(C(C)Nc2ccccc2C(=O)O)c2cc(-c3nc4ccccc4s3)n(C)c(=O)c2c1 (stereo not shown) [Example 17, 2-((1-(3-(benzo[d]thiazol-2-yl)-2,7-dimethyl-1-oxo-1,2-dihydroisoquinolin-5-yl)ethyl)amino)benzoic acid] | 7780 | 58.8 | 13.5 | 746 | >13 |
| Cc1cc(C(C)Nc2ccccc2C(=O)O)c2cc(-c3cnc(C(C)(C)O)nc3)n(C)c(=O)c2c1 (stereo not shown) [Example 66, 2-((1-(3-(2-(2-hydroxypropan-2-yl)pyrimidin-5-yl)-2,7-dimethyl-1-oxo-1,2-dihydroisoquinolin-5-yl)ethyl)amino)benzoic acid] | 21500 | 2800 | >3.57 | 908 | >11 |
| Cc1cc(C(C)Nc2ccccc2C(=O)O)c2cc(C#Cc3cnn(C)c3)n(C)c(=O)c2c1 (stereo not shown) [Example 80, 2-((1-(2,7-dimethyl-3-((1-methyl-1H-pyrazol-4-yl)ethynyl)-1-oxo-1,2-dihydroisoquinolin-5-yl)ethyl)amino)benzoic acid] | 3280 | 69.8 | 44.1 | 254 | >39.4 |
| Cc1cc(C(C)Nc2ccccc2C(=O)O)c2cc(-c3ccc(C(C)(C)O)nc3)n(C)c(=O)c2c1 (stereo not shown) [Example 55, 2-((1-(3-(6-(2-hydroxypropan-2-yl)pyridin-3-yl)-2,7-dimethyl-1-oxo-1,2-dihydroisoquinolin-5-yl)ethyl)amino)benzoic acid] | 26000 | 1560 | >6.4 | 296 | >34 |
| Cc1cc(C(C)Nc2ccccc2C(=O)O)c2cc(C3=CCN(c4ccccc4)CC3)n(C)c(=O)c2c1 (stereo not shown) [Example 46, 2-((1-(2,7-dimethyl-1-oxo-3-(1-phenyl-1,2,3,6-tetrahydropyridin-4-yl)-1,2-dihydroisoquinolin-5-yl)ethyl)amino)benzoic acid] | 11100 | 92.4 | 54.8 | 210 | >48 |
| Cc1cc(C(C)Nc2ccccc2C(=O)O)c2cc(-c3ccc4nn(C)cc4n3)n(C)c(=O)c2c1 (stereo not shown) [Example 39, 2-((1-(2,7-dimethyl-3-(2-methyl-2H-pyrazolo[4,3-b]pyridin-5-yl)-1-oxo-1,2-dihydroisoquinolin-5-yl)ethyl)amino)benzoic acid] | 10600 | 1110 | 5.6 | 496 | >20 |
| CC(Nc1ccccc1C(=O)O)c1cccc2c(=O)n(C)c(C#Cc3ccccc3)cc12 (stereo not shown) [Example 21, 2-((1-(2-methyl-1-oxo-3-(phenylethynyl)-1,2-dihydroisoquinolin-5-yl)ethyl)amino)benzoic acid] | 1340 | 35.5 | 165.3 | 2540 | >3.93 |
| Cc1cc([C@@H](C)Nc2ccccc2C(=O)O)c2cc(-c3ccc(F)cc3)n(CC#N)c(=O)c2c1 [Example 64, (R)-2-((1-(2-(cyanomethyl)-3-(4-fluorophenyl)-7-methyl-1-oxo-1,2-dihydroisoquinolin-5-yl)ethyl)amino)benzoic acid] | 2480 | 32.4 | >308 | 70 | >143 |
| Cc1cc([C@H](C)Nc2ccccc2C(=O)O)c2cc(-c3ccc(C(C)(C)O)nc3)n(C)c(=O)c2c1 [Example 57, (S)-2-((1-(3-(6-(2-hydroxypropan-2-yl)pyridin-3-yl)-2,7-dimethyl-1-oxo-1,2-dihydroisoquinolin-5-yl)ethyl)amino)benzoic acid] | 88400 | > 10000 | – | > 10000 | – |
| COc1ccc(-c2cc3c(C(C)Nc4ccccc4C(=O)O)cc(C)cc3c(=O)n2C)cc1 (stereo not shown) [Example 14, 2-((1-(3-(4-methoxyphenyl)-2,7-dimethyl-1-oxo-1,2-dihydroisoquinolin-5-yl)ethyl)amino)benzoic acid] | 3720 | 63.2 | 32.5 | 232 | >43 |
| Cc1cc(C(C)Nc2ccccc2C(=O)O)c2cc(-c3ccc(CN4CCOCC4)nc3)n(C)c(=O)c2c1 (stereo not shown) [Example 78, 2-((1-(2,7-dimethyl-3-(6-(morpholinomethyl)pyridin-3-yl)-1-oxo-1,2-dihydroisoquinolin-5-yl)ethyl)amino)benzoic acid] | 65900 | 1950 | >5.12 | 329 | >30 |
